Assay results as given in PubChem BioAssay AID1845208 (Molecular Pharmacology Branch, DTP, NCI, 2023).

Test system: NCI-H196 SCLC complex tumor spheroid viability
Assay: Anticancer human tumor NCI-H196 cell line growth inhibition;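 further: spheroids exposed to compounds for 7 days before readout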;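 on viability, T/C: 100% = DMSO vehicle control wells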
Conditions: for IC50: curve of first compound; for viability, T/C: stronger effect = lower value; active means viability on the fitted dose curve at most 10% of control; inactive means the rest
Outline: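 Complex spheroids of malignant cells with endothelial cells and mesenchymal stem cells; agents alone or combined, from near clinical Cmax (or 10 microM if unknown) down in half-log steps, 0.25% DMSO final.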

[1] = second compound 30 pM, first compound 0.0316 µM
[2] = second compound 30 pM, first compound 0.1 µM
[3] = second compound 30 pM, first compound 0.316 µM
[4] = second compound 30 pM, first compound 1 µM
[5] = second compound 30 pM, first compound 3.16 µM
[6] = second compound 30 pM, first compound 10 µM
[7] = second compound 94.9 pM, first compound 0.0316 µM
[8] = second compound 94.9 pM, first compound 0.1 µM
[9] = second compound 94.9 pM, first compound 0.316 µM
[10] = second compound 94.9 pM, first compound 1 µM
[11] = second compound 94.9 pM, first compound 3.16 µM
[12] = second compound 94.9 pM, first compound 10 µM
[13] = second compound 0.0003 µM, first compound 0.0316 µM
[14] = second compound 0.0003 µM, first compound 0.1 µM
[15] = second compound 0.0003 µM, first compound 0.316 µM
[16] = second compound 0.0003 µM, first compound 1 µM
[17] = second compound 0.0003 µM, first compound 3.16 µM
[18] = second compound 0.0003 µM, first compound 10 µM
[19] = second compound 0.000949 µM, first compound 0.0316 µM
[20] = second compound 0.000949 µM, first compound 0.1 µM
[21] = second compound 0.000949 µM, first compound 0.316 µM
[22] = second compound 0.000949 µM, first compound 1 µM
[23] = second compound 0.000949 µM, first compound 3.16 µM
[24] = second compound 0.000949 µM, first compound 10 µM
[25] = second compound 0.003 µM, first compound 0.0316 µM
[26] = second compound 0.003 µM, first compound 0.1 µM
[27] = second compound 0.003 µM, first compound 0.316 µM
[28] = second compound 0.003 µM, first compound 1 µM
[29] = second compound 0.003 µM, first compound 3.16 µM
[30] = second compound 0.003 µM, first compound 10 µM

Cc1cc(C)c(CNC(=O)c2cc(-c3ccc(CN4CCOCC4)cc3)cc3c2cnn3C2CCCC2)c(=O)[nH]1 + COc1cc2c(cc1O)CCNC21CSC2c3c(OC(C)=O)c(C)c4c(c3C(COC1=O)N1C(O)C3Cc5cc(C)c(OC)c(O)c5C(C21)N3C)OCO4
< 31.6 nM: IC50 (second compound 0.003 µM)
active: viability, T/C [25] 6.27% | viability, T/C [26] 7.07% | viability, T/C [27] 9.74% | viability, T/C [28] 5.44% | viability, T/C [29] 5.81% | viability, T/C [30] 3.71%
> 10000 nM: IC50 (second compound 30 pM) | IC50 (second compound 94.9 pM) | IC50 (second compound 0.0003 µM) | IC50 (second compound 0.000949 µM)
inactive: viability, T/C [1] 106% | viability, T/C [2] 104% | viability, T/C [3] 105% | viability, T/C [4] 103% | viability, T/C [5] 97.2% | viability, T/C [6] 105% | viability, T/C [7] 109% | viability, T/C [8] 101% | viability, T/C [9] 99.5% | viability, T/C [10] 104% | viability, T/C [11] 107% | viability, T/C [12] 106% | viability, T/C [13] 103% | viability, T/C [14] 105% | viability, T/C [15] 105% | viability, T/C [16] 105% | viability, T/C [17] 102% | viability, T/C [18] 104% | viability, T/C [19] 87.8% | viability, T/C [20] 94.6% | viability, T/C [21] 91.8% | viability, T/C [22] 83.9% | viability, T/C [23] 85% | viability, T/C [24] 85%

Cc1sc2c(c1C)C(c1ccc(Cl)cc1)=NC(CC(=O)Nc1ccc(O)cc1)c1nnc(C)n1-2 (stereo not given) + COc1cc2c(cc1O)CCNC21CSC2c3c(OC(C)=O)c(C)c4c(c3C(COC1=O)N1C(O)C3Cc5cc(C)c(OC)c(O)c5C(C21)N3C)OCO4
1020 nM: IC50 (second compound 94.9 pM)
< 9.49 nM: IC50 (second compound 0.003 µM)
> 3000 nM: IC50 (second compound 0.000949 µM)
2540 nM: IC50 (second compound 0.0003 µM)
631 nM: IC50 (second compound 30 pM)
active: viability, T/C (second compound 0.003 µM, first compound 0.00949 µM) 6.44% | viability, T/C (second compound 0.003 µM, first compound 0.03 µM) 6.85% | viability, T/C (second compound 0.003 µM, first compound 0.0949 µM) 6.03% | viability, T/C (second compound 0.003 µM, first compound 0.3 µM) 8.32% | viability, T/C (second compound 0.003 µM, first compound 0.949 µM) 2.93% | viability, T/C (second compound 0.003 µM, first compound 3 µM) 0.8%
inactive: viability, T/C (second compound 30 pM, first compound 0.00949 µM) 94.4% | viability, T/C (second compound 30 pM, first compound 0.03 µM) 96.4% | viability, T/C (second compound 30 pM, first compound 0.0949 µM) 93.8% | viability, T/C (second compound 30 pM, first compound 0.3 µM) 69.3% | viability, T/C (second compound 30 pM, first compound 0.949 µM) 39.7% | viability, T/C (second compound 30 pM, first compound 3 µM) 21.8% | viability, T/C (second compound 94.9 pM, first compound 0.00949 µM) 103% | viability, T/C (second compound 94.9 pM, first compound 0.03 µM) 100% | viability, T/C (second compound 94.9 pM, first compound 0.0949 µM) 95% | viability, T/C (second compound 94.9 pM, first compound 0.3 µM) 80.1% | viability, T/C (second compound 94.9 pM, first compound 0.949 µM) 51.4% | viability, T/C (second compound 94.9 pM, first compound 3 µM) 26.9% | viability, T/C (second compound 0.0003 µM, first compound 0.00949 µM) 110% | viability, T/C (second compound 0.0003 µM, first compound 0.03 µM) 110% | viability, T/C (second compound 0.0003 µM, first compound 0.0949 µM) 102% | viability, T/C (second compound 0.0003 µM, first compound 0.3 µM) 88.7% | viability, T/C (second compound 0.0003 µM, first compound 0.949 µM) 65.7% | viability, T/C (second compound 0.0003 µM, first compound 3 µM) 47.4% | viability, T/C (second compound 0.000949 µM, first compound 0.00949 µM) 89.6% | viability, T/C (second compound 0.000949 µM, first compound 0.03 µM) 88% | viability, T/C (second compound 0.000949 µM, first compound 0.0949 µM) 80.9% | viability, T/C (second compound 0.000949 µM, first compound 0.3 µM) 87.3% | viability, T/C (second compound 0.000949 µM, first compound 0.949 µM) 68.2% | viability, T/C (second compound 0.000949 µM, first compound 3 µM) 52.7%

[2H]c1nc(C)nc([2H])c1-c1cc(NC[C@@H](C)c2cccc3c(C(=O)NC)ccnc23)ncn1 + COc1cc2c(cc1O)CCNC21CSC2c3c(OC(C)=O)c(C)c4c(c3C(COC1=O)N1C(O)C3Cc5cc(C)c(OC)c(O)c5C(C21)N3C)OCO4
< 31.6 nM: IC50 (second compound 0.003 µM)
active: viability, T/C [25] 5.55% | viability, T/C [26] 6.42% | viability, T/C [27] 3.96% | viability, T/C [28] 6.02% | viability, T/C [29] 4.53% | viability, T/C [30] 2.75%
inactive: viability, T/C [1] 102% | viability, T/C [2] 102% | viability, T/C [3] 101% | viability, T/C [4] 104% | viability, T/C [5] 99.4% | viability, T/C [6] 97.6% | viability, T/C [7] 105% | viability, T/C [8] 108% | viability, T/C [9] 101% | viability, T/C [10] 106% | viability, T/C [11] 97.8% | viability, T/C [12] 104% | viability, T/C [13] 102% | viability, T/C [14] 106% | viability, T/C [15] 106% | viability, T/C [16] 105% | viability, T/C [17] 104% | viability, T/C [18] 105% | viability, T/C [19] 92.5% | viability, T/C [20] 86% | viability, T/C [21] 88.2% | viability, T/C [22] 83.5% | viability, T/C [23] 83.4% | viability, T/C [24] 93.7%
> 10000 nM: IC50 (second compound 30 pM) | IC50 (second compound 94.9 pM) | IC50 (second compound 0.0003 µM) | IC50 (second compound 0.000949 µM)
